Measurements as given in patent US20050009862A1, “Method for promoting uninterrupted sleep by administration of trospium chloride” (priority 2003, published 2005).

Columns and labels:
Assay type in all cases: in vivo, human
[1] = tested on: patients with overactive bladder (OAB) associated with predominant urge incontinence; assay: Same Phase III study, safety (adverse events, clinical laboratory tests, vital signs, ECG)
Procedure: A multicenter, double-blind, placebo-controlled study of 20 mg, twice-daily trospium chloride for 12 weeks followed by a 9-month, open-label treatment phase in patients with overactive bladder.
Multicenter, parallel, randomized, double-blind, placebo-controlled trial of patients with overactive bladder (OAB) associated with predominant urge incontinence. Patients who were currently receiving OAB drug therapy were to begin treatment after a 3-week washout period that included the 7-day patient urinary diary collection. Patients who were not currently receiving OAB drug therapy (i.e., naive patients) could begin treatment with study medication following their 7-day patient urinary diary collection and continued for a total double-blind treatment duration of 12 weeks.
Patients were randomized on a 1:1 basis to receive either placebo or trospium chloride 20 mg twice daily during the double-blind treatment segment of the study. The randomization schedule for patients was stratified by the mean baseline number of micturitions (i.e., toilet voids) per 24 hours (collected via the patient urinary diary over 7 days); specifically, using the stratified categories of 10 to 15, 16 to 20, and ≧21 mean micturitions per 24 hours. Patients were periodically evaluated during the 12-week treatment segment and were to return on Day 84 for the Week 12 assessments.
Adverse events (AEs), clinical laboratory tests, vital signs, and 12-lead electrocardiograms (ECGs).
The Fisher's Exact test was used to analyze adverse events. Other categorical data were analyzed using the Cochran-Mantel-Haenszel (CMH) procedure with center as the stratification variable. For all continuous data analyses, an analysis of variance (ANOVA) model with center and treatment was used.

[2] = tested on: People complaining of frequent wakefulness throughout the night due to repeated urges to urinate; assay: Example 3: single dose before sleeping in people with frequent wakefulness at night; conditions: 20 mg given 1.0 h before sleeping
Procedure: People complaining of frequent wakefulness throughout the night due to repeated urges to urinate are given 20 mg of trospium chloride 1.0 h before sleeping.

[3] = tested on: patients with overactive bladder (OAB) associated with predominant urge incontinence; assay: Phase III multicenter, double-blind, placebo-controlled 12-week study of trospium chloride 20 mg twice daily (#IP631-003), efficacy from patient urinary diary
From the text: A multi-center, parallel, randomized, double-blind, placebo controlled study (#IP631-003) was based on data collected as a result of administering the IUSS during a 12-week^1-clinical trial of patients with overactive bladder (OAB) associated with predominant urge incontinence—for trospium chloride in the United States. For full details on the clinical study ethics, administration, objectives and design, selection of study population, treatments, efficacy and safety variables and statistical methodology please refer to the clinical study protocol #IP631-003 and the ‘Final Report for the Double-Blind Phase’ prepared by Quintiles Inc.
The IUSS (Appendix A) asks patients about their ‘degree of urgency’ of their toilet voids (as meant to describe the urge to urinate). Patients are asked to rate the degree of urgency they felt before reaching the toilet for a toilet void (defined in the study as urination in the toilet). The instructions state that “Sometimes you may feel a very strong urge to urinate, and at other times, you may feel a milder urge prior to the onset of a toilet void. Rate this feeling by circling 0, 1, 2 or 3.” The instructions specify the following four response options: • 0: None—no urgency; • 1: Mild—awareness of urgency, but is easily tolerated and you can continue with your usual activity or tasks; • 2: Moderate—enough urgency discomfort that it interferes with or shortens your usual activity or tasks; and • 3: Severe—extreme urgency discomfort that abruptly stops all activity or tasks.
This single-item Urgency Severity Scale was contained within a ‘Patient Urinary Diary’, which was completed by all patients during four discrete one-week periods in the course of the 12-week double-blind trial (baseline and study treatment weeks 1, 4 and 12). During each of the one-week data collection periods, patients completed the diary every day for a total of seven days. […] In the diary, an urge leak was defined as a leakage due to a very strong need or desire to urinate. A stress leak was defined as being a result of coughing, sneezing, standing, laughing, exercise, or other physical activity/movement exerting pressure on the bladder. In addition, during the last two days of the 7-day diary collection period (days 6 and 7), patients collected and measured all urine volume for each and every toilet void and recorded this within the diary.
The study population for the clinical trial was 523 patients who received at least one dose of the study medication. Patients who entered the trial were required to have overactive bladder, defined as: • Urinary frequency of ≧70 toilet voids per 7 days (i.e. ≧10 toilet voids per day) as recorded in a patient urinary diary during a “washout” period; • Symptoms of urgency (i.e. sudden desire to toilet void); • Pure urge or mixed urinary incontinence with predominant urge incontinence.
Trospium chloride is an anticholinergic agent with predominantly peripheral antimuscarinic activity. Its mechanism enables the detrusor to relax, inhibiting evacuation of the bladder. Patients were randomized on a 1:1 basis to receive either placebo or trospium chloride. Patients receiving trospium chloride took one 20-mg tablet twice daily. Those receiving placebo took one placebo tablet twice daily. The identity of the study medication was blinded.
Patients completed a patient diary on a daily basis during four one-week data collection windows: baseline, week 1, week 4 and week 12. The diary collected the following patient-reported outcome data: • IUSS; • Number of toilet voids; • Number of urge incontinence episodes, and separately, stress incontinence episodes; • Volume voided (mL), collected on the last 2 of 7 days of the 7 day diary.
A multicenter, double-blind, placebo-controlled study of 20 mg, twice-daily trospium chloride for 12 weeks followed by a 9-month, open-label treatment phase in patients with overactive bladder. […]

[4] = tested on: Patients with overactive bladder associated with predominant urge incontinence and complaining of frequent wakefulness throughout the night; assay: Example 2: single dose before sleeping in overactive bladder patients with frequent wakefulness at night; conditions: 20 mg given 0.5 h before sleeping
Procedure: Patients with overactive bladder associated with predominant urge incontinence and complaining of frequent wakefulness throughout the night due to repeated urges to urinate are given 20 mg of trospium chloride 0.5 h before sleeping.

In the case of `O=C(O[C@H]1C[C@H]2CC[C@@H](C1)[N+]21CCCC1)C(O)(c1ccccc1)c1ccccc1` [Trospium, 3-alpha-benziloyloxynortropane-8-spiro-1′-pyrrolidinium chloride], the “Overall safety and tolerability” value ([1]; 20 mg twice daily, 12 weeks) is reported as “safe and generally well tolerated”, the “Patients with QTcF intervals >500 msec that had increased by >60 msec from baseline” value ([1]; 1 patient in each treatment group, no clinical signs, resolved at endpoint) is reported as 1 patient and the “Patients in whom study medication was permanently discontinued due to TEAEs (percent)” value ([1]; 12-week double-blind phase, 20 mg twice daily, placebo 5.7%) is reported as 8.8%. For the same molecule, the “Patients in whom study medication was permanently discontinued due to TEAEs (number)” value ([1]; 12-week double-blind phase, 20 mg twice daily, placebo 15 patients) was 23 patients, the “Patients who experienced an adverse event leading to death” value ([1]; person, hemorrhagic stroke on Day 57, assessed as remotely related to study medication) was 1 patient and the “Most common TEAEs that led to discontinuation of study medication” value ([1]; trospium group) was “dry mouth, constipation, abdominal pain NOS, and urinary retention”. The “Sleep during the normal sleep period” value [2] was “uninterrupted sleep throughout their normal sleep periods”, the “Mean change from baseline: Number of toilet voids/24 hours” value ([3]; Week 12, 20 mg oral tablet twice daily, N = 253, ITT:LOCF, placebo −1.29, P <0.0001) was −2.37 and the “Mean change from baseline: Volume voided (mL) per toilet void/24 hours” value ([3]; Week 12, 20 mg twice daily, N = 248, ITT:LOCF, placebo 7.72, P <0.0001) was 32.14 mL. For the same molecule, the “Mean change from baseline: Urgency severity score associated with toilet voids (IUSS, 0-3)” value ([3]; Week 12, 20 mg twice daily, N = 253, ITT:LOCF, placebo −0.04, P 0.0001) was −0.22, the “Mean change from baseline: Number of nocturnal toilet voids/24 hours” value ([3]; Week 12, 20 mg twice daily, N = 253, ITT:LOCF, placebo −0.29, P 0.0255) was −0.47 and the “Mean change from baseline: Number of urge incontinence episodes/24 hours” value ([3]; Week 12, 20 mg twice daily, N = 253, ITT:LOCF, placebo −1.98, P 0.0118 (ranked ANOVA)) was −2.20. The “Change in average urgency severity per 24 hours compared with placebo” value ([3]; at Weeks 1, 4, and 12) was “significant decrease”, the “Change in average volume voided compared with placebo” value ([3]; at Weeks 1, 4, and 12) was “statistically significant increase” and the “Change in average number of toilet voids per 24 hours compared with placebo” value ([3]; at Weeks 1, 4, and 12, improvement = decrease) was “statistically significant (p≦0.05) improvement”. For the same molecule, the “Change in average number of urge incontinence episodes per 24 hours compared with placebo” value ([3]; at Weeks 4 and 12, improvement = decrease) was “statistically significant (p≦0.05) improvement”, the “Onset of action during Week 1 for effect on toilet voids, urge incontinence episodes, and total micturitions per 24 hours” value ([3]; consistently significant effects by Day 7) was “superior when compared with placebo” and the “Average reduction in mean number of urgency episodes (IUSS severity >0)” value ([3]; over the 12-week trial, baseline mean 11.29, placebo reduction 1.08, p<0.01) was 2.30 urgency episodes. The “Sleep during the normal sleep period” value [4] was “uninterrupted sleep throughout their normal sleep periods”.
